Reference: ChEMBL document CHEMBL2163206, “New nitrogen containing substituents at the indole-2-carboxamide yield high potent and broad spectrum indolylarylsulfone HIV-1 non-nucleoside reverse transcriptase inhibitors” (J Med Chem, 2012)

Legend:
[1] = tested on: Human immunodeficiency virus 1; assay: Antiviral activity against HIV1 NL4-3 infected in human MT4 cells assessed as inhibition of virus-induced cytopathicity measured 5 days post infection by MTT assay; format: functional, organism-based; conditions: Human immunodeficiency virus 1, NL4-3, MT4, 120 h
[2] = tested on: Human immunodeficiency virus 1; format: functional, organism-based; conditions: Human immunodeficiency virus 1, MT4, 120 h
[3] = tested on: Human immunodeficiency virus 1; format: functional, organism-based; conditions: Human immunodeficiency virus 1, IRLL98, MT4, 120 h
[4] = tested on: Human immunodeficiency virus 1; assay: Antiviral activity against HIV1 containing reverse transcriptase K103N mutant infected in human MT4 cells assessed as inhibition of virus-induced cytopathicity measured 5 days post infection by MTT assay; format: functional, organism-based; conditions: Human immunodeficiency virus 1, MT4, 120 h
[5] = Cytotoxicity against mock-infected human MT4 cells measured after 5 days by MTT assay; format: cell-based
in vitro = conditions: human
Description: Selectivity index, ratio of CC50 for mock-infected human MT4 cells to EC50 for HIV1 NL4-3 infected in human MT4 cells

[6] = biological target: Human immunodeficiency virus type 1 reverse transcriptase (Human immunodeficiency virus 1, UniProt Q72547); assay: Inhibition of wild type HIV1 reverse transcriptase RNA-dependent DNA polymerase activity using poly(rA)/oligo(dT)10:1 and [3H]-dTTP substrate
[7] = biological target: Human immunodeficiency virus type 1 reverse transcriptase (Human immunodeficiency virus 1, UniProt Q72547, L100I); assay: Inhibition of HIV1 reverse transcriptase L100I mutant RNA-dependent DNA polymerase activity using poly(rA)/oligo(dT)10:1 and [3H]-dTTP substrate
[8] = tested on: Human immunodeficiency virus 1; assay: microbe, parasite or virus in culture; conditions: Human immunodeficiency virus 1, MT4, 120 h
Description: Antiviral activity against HIV1 containing reverse transcriptase Y188L mutant infected in human MT4 cells assessed as inhibition of virus-induced cytopathicity measured 5 days post infection by MTT assay

[9] = biological target: Human immunodeficiency virus type 1 reverse transcriptase (Human immunodeficiency virus 1, UniProt Q72547, K103N); assay: Inhibition of HIV1 reverse transcriptase K103N mutant RNA-dependent DNA polymerase activity using poly(rA)/oligo(dT)10:1 and [3H]-dTTP substrate
[10] = tested on: Human immunodeficiency virus 1; assay: microbe, parasite or virus in culture; conditions: Human immunodeficiency virus 1, clade A (UG273)
Description: Antiviral activity against HIV1 clade A (UG273) infected in human PBMCs assessed as inhibition of p24 antigen production by ELISA

[11] = tested on: Human immunodeficiency virus 1; assay: microbe, parasite or virus in culture; conditions: Human immunodeficiency virus 1, clade B (BaL)
Description: Antiviral activity against HIV1 clade B (BaL) infected in human PBMCs assessed as inhibition of p24 antigen production by ELISA

[12] = tested on: Human immunodeficiency virus 1; assay: microbe, parasite or virus in culture; conditions: Human immunodeficiency virus 1, clade F (BZ162)
Description: Antiviral activity against HIV1 clade F (BZ162) infected in human PBMCs assessed as inhibition of p24 antigen production by ELISA

[13] = tested on: Human immunodeficiency virus 1; assay: microbe, parasite or virus in culture; conditions: Human immunodeficiency virus 1, clade C (DJ259)
Description: Antiviral activity against HIV1 clade C (DJ259) infected in human PBMCs assessed as inhibition of p24 antigen production by ELISA

[14] = tested on: Human immunodeficiency virus 1; assay: microbe, parasite or virus in culture; conditions: Human immunodeficiency virus 1, clade C (SM145)
Description: Antiviral activity against HIV1 clade C (SM145) infected in human PBMCs assessed as inhibition of p24 antigen production by ELISA

[15] = tested on: Human immunodeficiency virus 1; assay: microbe, parasite or virus in culture; conditions: Human immunodeficiency virus 1, clade D (UG270)
Description: Antiviral activity against HIV1 clade D (UG270) infected in human PBMCs assessed as inhibition of p24 antigen production by ELISA

[16] = tested on: Human immunodeficiency virus 1; assay: microbe, parasite or virus in culture; conditions: Human immunodeficiency virus 1, clade G (BCF-DIOUM)
Description: Antiviral activity against HIV1 clade G (BCF-DIOUM) infected in human PBMCs assessed as inhibition of p24 antigen production by ELISA

[17] = tested on: Human immunodeficiency virus 1; assay: microbe, parasite or virus in culture; conditions: Human immunodeficiency virus 1, clade A/E (ID12)
Description: Antiviral activity against HIV1 clade A/E (ID12) infected in human PBMCs assessed as inhibition of p24 antigen production by ELISA

[18] = tested on: Human immunodeficiency virus 1; assay: Potency index, ratio of EC50 for Efavirenz to EC50 for compound against HIV1 containing reverse transcriptase K103N mutant infected in human MT4 cells assessed as inhibition of virus-induced cytopathicity measured 5 days post infection by MTT assay; format: functional
[19] = tested on: Human immunodeficiency virus 1; assay: Antiviral activity against HIV1 NL4-3 infected in human PBMCs assessed as inhibition of p24 antigen production by ELISA; format: functional, organism-based; conditions: Human immunodeficiency virus 1, NL4-3
[20] = tested on: Human immunodeficiency virus 2; assay: Antiviral activity against HIV2 infected in human PBMCs assessed as inhibition of p24 antigen production by ELISA; format: functional, organism-based

Row | Compound | EC50 [1] [nM] | EC50 [2] [nM] | EC50 [4] [nM] | CC50 at 120 h [5] [nM] | selectivity ratio (in vitro) | IC50 [6] [nM] | IC50 [7] [nM] | EC50 [8] [nM] | IC50 [9] [nM] | other results
1 | O=C1Nc2ccc(Cl)cc2[C@@](C#CC2CC2)(C(F)(F)F)O1 [EFAVIRENZ] | 6.3 | 158 | 69.3 | > 15800 |  |  |  |  |  | EC50 [3]: 980 nM
2 | Cc1cc(C)cc(S(=O)(=O)c2c(C(=O)NCCc3ccccn3)[nH]c3ccc(Cl)cc23)c1 | 2 |  |  | > 10700 | > 5340 |  |  |  |  | 
3 | Cc1cc(C)cc(S(=O)(=O)c2c(C(=O)NCCc3ccncc3)[nH]c3ccc(Cl)cc23)c1 | 2 |  |  | > 10700 | > 5340 |  |  |  |  | 
4 | Cc1cc(C)cc(S(=O)(=O)c2c(C(=O)Nc3cccc(C#N)c3)[nH]c3ccc(Cl)cc23)c1 | 2.2 | 44 | 19.8 | > 10800 | > 4900 | 506 | 287 | 1390 | > 40 | 
5 | Cc1nnc(C(C)C)n1[C@H]1C[C@H]2CC[C@@H](C1)N2CC[C@H](NC(=O)C1CCC(F)(F)CC1)c1ccccc1 (relative stereo) [MARAVIROC] |  |  |  |  |  |  |  |  |  | EC50 [10]: 1 nM; EC50 [11]: 1 nM; EC50 [12]: 1 nM; EC50 [13]: 1 nM; EC50 [14]: 1 nM; EC50 [15]: 1 nM; EC50 [16]: 1 nM; EC50 [17]: 1 nM
6 | Cc1cc(C)cc(S(=O)(=O)c2c(C(=O)NCc3ccccn3)[nH]c3ccc(Cl)cc23)c1 | 2 |  |  | > 11000 | > 5510 |  |  |  |  | 
7 | Cc1cc(C)cc(S(=O)(=O)c2c(C(=O)NCc3ccc(C#N)cc3)[nH]c3ccc(Cl)cc23)c1 | 1.5 | 32.1 | 118 | > 10500 | > 6970 | > 10 | > 4 | > 10700 | > 10 | 
8 | Cc1cc(C)cc(S(=O)(=O)c2c(C(=O)NCc3ccncc3)[nH]c3ccc(Cl)cc23)c1 | 2 | 2.2 | 8.8 | > 11000 | > 5510 | 21 | 11 | 22 | 45 | Ratio EC50 [18]: 8; EC50 [10]: 0.6 nM; EC50 [11]: 0.1 nM; EC50 [12]: 0.6 nM; EC50 [19]: 0.4 nM; EC50 [20]: > 200 nM; EC50 [13]: 0.4 nM; EC50 [14]: 0.3 nM; EC50 [3]: 1 nM; EC50 [15]: 0.4 nM; EC50 [16]: 1.7 nM; EC50 [17]: 0.6 nM
9 | Cc1cc(C)cc(S(=O)(=O)c2c(C(=O)NC(C)C(N)=O)[nH]c3ccc(Cl)cc23)c1 (racemic) | 2 |  |  | 6040 | 3020 |  |  |  |  | 
10 | Cc1cc(C)cc(S(=O)(=O)c2c(C(=O)NCCc3cccnc3)[nH]c3ccc(Cl)cc23)c1 | 2.1 | 6.3 | 27.3 | > 10700 | > 5090 | 40 | 24 | 504 | 162 | 
11 | Cc1cn([C@H]2C[C@H](N=[N+]=[N-])[C@@H](CO)O2)c(=O)[nH]c1=O [ZIDOVUDINE] | 7.8 | 1.6 | 15.6 | > 18700 | > 2400 |  |  | 11.7 |  | EC50 [3]: 3.8 nM
12 | Cc1cc(C)cc(S(=O)(=O)c2c(C(=O)Nc3ccc(C#N)cc3)[nH]c3ccc(Cl)cc23)c1 | 11 |  |  | > 10800 | > 980 |  |  |  |  | 
13 | Cc1cc(C)cc(S(=O)(=O)c2c(C(=O)NCc3ccnc4ccccc34)[nH]c3ccc(Cl)cc23)c1 | 12 |  |  | > 9920 | > 827 |  |  |  |  | 
14 | Cc1cc(C)cc(S(=O)(=O)c2c(C(=O)NCc3cccnc3)[nH]c3ccc(Cl)cc23)c1 | 2.2 | 8.8 | 37.8 | > 11000 | > 5010 | 20 | 8 | 44 | 32 | 
15 | Cc1cc(C)cc(S(=O)(=O)c2c(C(=O)Nc3ccccc3C#N)[nH]c3ccc(Cl)cc23)c1 | 2 |  |  | > 10800 | > 5390 |  |  |  |  | 
16 | Cc1ccnc2c1NC(=O)c1cccnc1N2C1CC1 [NEVIRAPINE] | 1500 | > 3760 | > 3760 | > 18800 |  |  |  | > 3760 |  | EC50 [3]: > 18900 nM
